Measurements taken from patent publication US20230322747A1, “OXADIAZOLE HDAC6 INHIBITORS AND USES THEREOF” (Eikonizo Therapeutics, Inc., priority 2022, published 2023).

Assays:
[1] = molecular target: Human HDAC6 (Homo sapiens (Human), UniProt Q9UBN7); assay: HDAC6 enzymatic activity assay (Caliper endpoint or fluorogenic format); type: biochemical; conditions: for IC50: in vitro enzymatic; for Selectivity (6 v 8) (fold): ratio of HDAC8 IC50/HDAC6 IC50
[2] = molecular target: Human HDAC8 (Homo sapiens (Human), UniProt Q9BY41); assay: Caliper endpoint assay for HDAC8 enzymatic activity; type: biochemical; conditions: in vitro enzymatic
Human HDAC8, sequence (Q9BY41 whole entry): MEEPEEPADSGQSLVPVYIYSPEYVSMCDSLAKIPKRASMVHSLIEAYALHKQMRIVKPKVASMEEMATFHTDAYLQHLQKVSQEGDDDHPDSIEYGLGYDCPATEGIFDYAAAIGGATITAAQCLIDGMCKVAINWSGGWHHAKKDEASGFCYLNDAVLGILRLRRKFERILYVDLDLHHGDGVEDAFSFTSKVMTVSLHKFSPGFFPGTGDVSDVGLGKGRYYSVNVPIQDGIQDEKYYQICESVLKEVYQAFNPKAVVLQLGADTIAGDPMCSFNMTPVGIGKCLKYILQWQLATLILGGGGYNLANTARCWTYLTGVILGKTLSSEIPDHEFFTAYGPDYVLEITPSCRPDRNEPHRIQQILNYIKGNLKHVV

Human HDAC6, sequence (Q9UBN7 whole entry): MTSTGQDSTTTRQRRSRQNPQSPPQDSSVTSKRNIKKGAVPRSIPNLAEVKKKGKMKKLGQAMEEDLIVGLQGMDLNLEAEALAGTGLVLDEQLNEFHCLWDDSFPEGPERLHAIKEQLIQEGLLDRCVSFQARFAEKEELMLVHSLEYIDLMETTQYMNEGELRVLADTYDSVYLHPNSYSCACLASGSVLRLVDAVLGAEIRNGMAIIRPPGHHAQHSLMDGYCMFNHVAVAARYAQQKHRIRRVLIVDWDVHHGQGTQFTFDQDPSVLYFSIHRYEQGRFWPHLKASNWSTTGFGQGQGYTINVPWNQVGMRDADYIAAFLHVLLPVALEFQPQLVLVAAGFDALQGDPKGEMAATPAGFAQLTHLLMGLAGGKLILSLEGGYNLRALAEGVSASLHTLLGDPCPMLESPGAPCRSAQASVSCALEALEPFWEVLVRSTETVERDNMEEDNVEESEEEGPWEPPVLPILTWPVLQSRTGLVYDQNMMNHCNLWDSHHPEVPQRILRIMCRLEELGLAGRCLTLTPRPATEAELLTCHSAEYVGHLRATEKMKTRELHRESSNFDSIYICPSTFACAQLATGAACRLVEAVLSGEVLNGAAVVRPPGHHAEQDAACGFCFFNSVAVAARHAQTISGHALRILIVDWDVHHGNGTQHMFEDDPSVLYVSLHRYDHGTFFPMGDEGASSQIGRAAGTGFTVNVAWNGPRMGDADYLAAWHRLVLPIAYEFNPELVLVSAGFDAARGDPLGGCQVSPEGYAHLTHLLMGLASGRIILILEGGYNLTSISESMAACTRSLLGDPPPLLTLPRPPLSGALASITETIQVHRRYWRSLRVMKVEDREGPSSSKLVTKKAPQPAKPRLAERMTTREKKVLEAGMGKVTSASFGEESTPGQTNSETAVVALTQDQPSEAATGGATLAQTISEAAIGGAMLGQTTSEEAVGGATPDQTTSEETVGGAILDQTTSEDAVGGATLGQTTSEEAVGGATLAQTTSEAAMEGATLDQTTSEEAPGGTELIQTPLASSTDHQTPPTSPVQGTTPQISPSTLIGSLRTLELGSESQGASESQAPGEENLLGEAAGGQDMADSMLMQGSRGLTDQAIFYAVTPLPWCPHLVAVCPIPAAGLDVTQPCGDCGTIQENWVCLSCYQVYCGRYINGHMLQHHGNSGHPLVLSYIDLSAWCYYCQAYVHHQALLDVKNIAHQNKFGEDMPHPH

Structure (SMILES)	IC50 [1]	Selectivity (6 v 8) (fold) [1]	IC50 [2]
FC(F)c1nnc(-c2ccc(COc3cncc4ccccc34)nc2)o1 [Compound 88]	1 to 100 nM	V (V: >1000)	10000 to 100000 nM
FC(F)c1nnc(-c2ccc(COc3ccc(C(F)(F)F)nc3)nc2)o1 [Compound 91]	1 to 100 nM	V (V: >1000)	> 100000 nM
FC(F)c1nnc(-c2ccc(COc3cccc(C(F)(F)F)n3)nc2)o1 [Compound 92]	1 to 100 nM	V (V: >1000)	> 100000 nM
FC(F)c1nnc(-c2ccc(COc3cncc(C(F)(F)F)c3)nc2)o1 [Compound 93]	1 to 100 nM	V (V: >1000)	> 100000 nM
Cc1nc(OCc2ccc(-c3nnc(C(F)F)o3)cn2)c2ccccc2n1 [Compound 97]	1 to 100 nM	V (V: >1000)	> 100000 nM
FC(F)c1nnc(-c2ccc(COc3ccnc(N4CCOCC4)n3)nc2)o1 [Compound 99]	100 to 1000 nM	V (V: >1000)	> 100000 nM
FC(F)c1nnc(-c2ccc(COc3cncnc3)nc2)o1 [Compound 102]	1 to 100 nM	V (V: >1000)	> 100000 nM
Fc1cnc(OCc2ccc(-c3nnc(C(F)F)o3)cn2)nc1 [Compound 106]	100 to 1000 nM	V (V: >1000)	> 100000 nM
N#Cc1ccc(OCc2ccc(-c3nnc(C(F)F)o3)cn2)cc1 [Compound 118, 4-((5-(5-(difluoromethyl)-1,3,4-oxadiazol-2-yl)pyridin-2-yl)methoxy)benzonitrile]	1 to 100 nM	V (V: >1000)	10000 to 100000 nM
NC(=O)c1ccc(OCc2ccc(-c3nnc(C(F)F)o3)cn2)cc1 [Compound 122, 4-((5-(5-(difluoromethyl)-1,3,4-oxadiazol-2-yl)pyridin-2-yl)methoxy)benzamide]	> 100000 nM	V (V: >1000)	> 100000 nM
FC(F)c1nnc(-c2ccc(COc3ccn4cnnc4c3)nc2)o1 [Compound 184, 2-(6-(([1,2,4]triazolo[4,3-a]pyridin-7-yloxy)methyl)pyridin-3-yl)-5-(difluoromethyl)-1,3,4-oxadiazole]	100 to 1000 nM	IV (IV: >100-1000)	> 100000 nM
CN1CCc2c(OCc3ccc(-c4nnc(C(F)F)o4)cn3)noc2C1 [Compound 191, 3-((5-(5-(Difluoromethyl)-1,3,4-oxadiazol-2-yl)pyridin-2-yl)methoxy)-6-methyl-4,5,6,7-tetrahydroisoxazolo[5,4-c]pyridine]	100 to 1000 nM	IV (IV: >100-1000)	> 100000 nM
CCn1cnc2ccc(OCc3ccc(-c4nnc(C(F)F)o4)cn3)cc21 [Compound 202]	100 to 1000 nM	IV (IV: >100-1000)	> 100000 nM
CC(C)n1cnc2ccc(OCc3ccc(-c4nnc(C(F)F)o4)cn3)cc21 [Compound 203]	1000 to 10000 nM	III (III: >10-100)	> 100000 nM
Cn1nc(-c2nc3ccc(OCc4ccc(-c5nnc(C(F)F)o5)cn4)cc3o2)ccc1=O [Compound 204]	1 to 100 nM	V (V: >1000)	> 100000 nM
FC(F)c1nnc(-c2ccc(COc3ccc4c(c3)ncn4CCN3CCCC3)nc2)o1 [Compound 209]	1000 to 10000 nM	III (III: >10-100)	> 100000 nM
CN(C)CCn1cnc2cc(OCc3ccc(-c4nnc(C(F)F)o4)cn3)ccc21 [Compound 210]	1000 to 10000 nM	III (III: >10-100)	> 100000 nM
CCn1cnc2cc(OCc3ccc(-c4nnc(C(F)F)o4)cn3)ccc21 [Compound 211]	100 to 1000 nM	IV (IV: >100-1000)	> 100000 nM
CC(C)n1cnc2cc(OCc3ccc(-c4nnc(C(F)F)o4)cn3)ccc21 [Compound 212]	100 to 1000 nM	IV (IV: >100-1000)	> 100000 nM
